pIC50: −log10 of the molar value. One block for each compound: values may come before it.
Legend:
[1] = Selectivity ratio of IC50 for cytotoxicity against human MCF-10A cells assessed as inhibition of cell growth to IC50 for cytotoxicity against human MDA-MB-231 cells assessed as inhibition of cell growth; format: toxicity, cell-based; conditions: MCF-10A cells versus MDA-MB-231 cells, read-out: Ratio IC50
[2] = Selectivity ratio of IC50 for cytotoxicity against human HCEC cells assessed as inhibition of cell growth to IC50 for cytotoxicity against human MDA-MB-453 cells assessed as inhibition of cell growth; format: toxicity, cell-based; conditions: HCEC cells versus MDA-MB-453 cells, read-out: Ratio IC50
MDA-MB-453 = experiment: Cytotoxicity against human MDA-MB-453 cells assessed as inhibition of cell growth incubated for 72 hrs by MTT assay; format: functional, cell-based; conditions: MDA-MB-453, 72 h
[3] = Selectivity ratio of IC50 for cytotoxicity against human HEK293 cells assessed as inhibition of cell growth to IC50 for cytotoxicity against human MCF7 cells assessed as inhibition of cell growth; format: toxicity, cell-based; conditions: HEK293 cells versus MCF7 cells, read-out: Ratio IC50
[4] = Selectivity ratio of IC50 for cytotoxicity against human MCF-10A cells assessed as inhibition of cell growth to IC50 for cytotoxicity against human MDA-MB-453 cells assessed as inhibition of cell growth; format: toxicity, cell-based; conditions: MCF-10A cells versus MDA-MB-453 cells, read-out: Ratio IC50
MCF7 = experiment: Cytotoxicity against human MCF7 cells assessed as inhibition of cell growth incubated for 72 hrs by MTT assay; format: functional, cell-based; conditions: MCF7, 72 h
[5] = Cytotoxicity against human HCEC cells assessed as inhibition of cell growth incubated for 72 hrs by MTT assay; format: toxicity, cell-based; conditions: for IC50 at 72 h: human, HCEC cells
[6] = Cytotoxicity against human HEK293 cells assessed as inhibition of cell growth incubated for 72 hrs by MTT assay; format: toxicity, cell-based
[7] = Selectivity ratio of IC50 for cytotoxicity against human HCEC cells assessed as inhibition of cell growth to IC50 for cytotoxicity against human MCF7 cells assessed as inhibition of cell growth; format: toxicity, cell-based; conditions: HCEC cells versus MCF7 cells, read-out: Ratio IC50
[8] = Selectivity ratio of IC50 for cytotoxicity against human MCF-10A cells assessed as inhibition of cell growth to IC50 for cytotoxicity against […] cells assessed as inhibition of cell growth; format: toxicity, cell-based; conditions: MCF-10A cells versus 4T1 cells, read-out: Ratio IC50
Histone deacetylase 3 = Histone deacetylase 3 (Homo sapiens, UniProt O15379); experiment: Inhibition of human recombinant HDAC3 at 1 uM measured after 30 mins by fluorescence based microplate assay relative to control
Chain of Histone deacetylase 3 (O15379 whole entry): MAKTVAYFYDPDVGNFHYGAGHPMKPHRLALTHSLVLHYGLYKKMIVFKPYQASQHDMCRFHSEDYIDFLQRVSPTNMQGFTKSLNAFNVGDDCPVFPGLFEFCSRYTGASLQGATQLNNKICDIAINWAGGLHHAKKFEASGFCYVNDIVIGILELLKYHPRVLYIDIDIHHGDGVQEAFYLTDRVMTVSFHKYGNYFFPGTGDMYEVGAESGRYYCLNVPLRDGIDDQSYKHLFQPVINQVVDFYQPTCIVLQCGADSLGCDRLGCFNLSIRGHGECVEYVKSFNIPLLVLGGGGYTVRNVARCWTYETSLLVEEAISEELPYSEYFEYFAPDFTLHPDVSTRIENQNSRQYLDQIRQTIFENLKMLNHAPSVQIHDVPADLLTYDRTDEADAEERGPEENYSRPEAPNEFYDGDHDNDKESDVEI

4T1 = experiment: Cytotoxicity against mouse 4T1 cells assessed as inhibition of cell growth incubated for 72 hrs by MTT assay; format: functional, cell-based; conditions: 4T1, 72 h
[9] = Selectivity ratio of IC50 for cytotoxicity against human HEK293 cells assessed as inhibition of cell growth to IC50 for cytotoxicity against human MDA-MB-453 cells assessed as inhibition of cell growth; format: toxicity, cell-based; conditions: HEK293 cells versus MDA-MB-453 cells, read-out: Ratio IC50
[10] = Cytotoxicity against human MCF-10A cells assessed as inhibition of cell growth incubated for 72 hrs by MTT assay; format: toxicity, cell-based
[11] = Selectivity ratio of IC50 for cytotoxicity against human HEK293 cells assessed as inhibition of cell growth to IC50 for cytotoxicity against human MDA-MB-231 cells assessed as inhibition of cell growth; format: toxicity, cell-based; conditions: HEK293 cells versus MDA-MB-231 cells, read-out: Ratio IC50
[12] = Selectivity ratio of IC50 for cytotoxicity against human HEK293 cells assessed as inhibition of cell growth to IC50 for cytotoxicity against mouse 4T1 cells assessed as inhibition of cell growth; format: toxicity, cell-based; conditions: HEK293 cells versus 4T1 cells, read-out: Ratio IC50
[13] = Selectivity ratio of IC50 for cytotoxicity against human MCF-10A cells assessed as inhibition of cell growth to IC50 for cytotoxicity against human MCF7 cells assessed as inhibition of cell growth; format: toxicity, cell-based; conditions: MCF-10A cells versus MCF7 cells, read-out: Ratio IC50
Histone deacetylase 2 = Histone deacetylase 2 (Homo sapiens, UniProt Q92769); experiment: Inhibition of human recombinant HDAC2 at 1 uM incubated for 30 mins by fluorescence based microplate assay relative to control
Chain of Histone deacetylase 2 (Q92769 whole entry): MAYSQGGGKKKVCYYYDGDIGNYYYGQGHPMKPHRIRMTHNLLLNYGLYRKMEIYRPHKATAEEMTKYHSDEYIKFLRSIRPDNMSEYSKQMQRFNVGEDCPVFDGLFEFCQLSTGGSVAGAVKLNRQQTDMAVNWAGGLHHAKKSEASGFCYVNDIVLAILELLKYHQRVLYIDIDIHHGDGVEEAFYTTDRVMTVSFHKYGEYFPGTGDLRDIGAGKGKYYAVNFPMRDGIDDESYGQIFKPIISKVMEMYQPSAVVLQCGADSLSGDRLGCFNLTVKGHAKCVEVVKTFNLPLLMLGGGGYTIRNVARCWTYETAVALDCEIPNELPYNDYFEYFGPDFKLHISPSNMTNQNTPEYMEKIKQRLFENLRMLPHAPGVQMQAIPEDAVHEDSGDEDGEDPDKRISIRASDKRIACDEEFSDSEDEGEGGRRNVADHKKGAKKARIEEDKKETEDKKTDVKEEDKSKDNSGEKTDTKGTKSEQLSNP

[14] = Selectivity ratio of IC50 for cytotoxicity against human HCEC cells assessed as inhibition of cell growth to IC50 for cytotoxicity against mouse 4T1 cells assessed as inhibition of cell growth; format: toxicity, cell-based; conditions: HCEC cells versus 4T1 cells, read-out: Ratio IC50
MDA-MB-231 = experiment: Cytotoxicity against human MDA-MB-231 cells assessed as inhibition of cell growth incubated for 72 hrs by MTT assay; format: functional, cell-based; conditions: MDA-MB-231, 72 h
Histone deacetylase 1 = Histone deacetylase 1 (Homo sapiens, UniProt Q13547); experiment: Inhibition of full length N-terminal human recombinant HDAC1 at 1 uM incubated for 30 mins by fluorescence based microplate assay relative to control
Chain of Histone deacetylase 1 (Q13547 whole entry): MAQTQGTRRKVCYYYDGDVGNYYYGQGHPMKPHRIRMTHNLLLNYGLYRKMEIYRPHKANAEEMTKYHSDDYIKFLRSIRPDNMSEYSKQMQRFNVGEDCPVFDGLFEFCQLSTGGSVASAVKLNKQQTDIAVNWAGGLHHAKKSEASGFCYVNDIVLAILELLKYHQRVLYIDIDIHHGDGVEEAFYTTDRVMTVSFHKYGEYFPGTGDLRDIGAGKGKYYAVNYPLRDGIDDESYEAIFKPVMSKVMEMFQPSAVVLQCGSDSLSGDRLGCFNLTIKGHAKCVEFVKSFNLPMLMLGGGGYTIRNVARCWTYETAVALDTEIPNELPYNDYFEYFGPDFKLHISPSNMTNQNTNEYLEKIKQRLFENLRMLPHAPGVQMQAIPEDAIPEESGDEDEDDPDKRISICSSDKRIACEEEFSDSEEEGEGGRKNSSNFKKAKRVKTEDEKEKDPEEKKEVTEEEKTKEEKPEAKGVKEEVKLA

[15] = Selectivity ratio of IC50 for cytotoxicity against human HCEC cells assessed as inhibition of cell growth to IC50 for cytotoxicity against human MDA-MB-231 cells assessed as inhibition of cell growth; format: toxicity, cell-based; conditions: HCEC cells versus MDA-MB-231 cells, read-out: Ratio IC50
Histone deacetylase 8 [16] = target: T1, Histone deacetylase 8 (Homo sapiens, UniProt Q9BY41); experiment: Inhibition of human recombinant HDAC8 incubated for 10 mins by fluorescence based microplate analysis
T1 sequence (Q9BY41 whole entry): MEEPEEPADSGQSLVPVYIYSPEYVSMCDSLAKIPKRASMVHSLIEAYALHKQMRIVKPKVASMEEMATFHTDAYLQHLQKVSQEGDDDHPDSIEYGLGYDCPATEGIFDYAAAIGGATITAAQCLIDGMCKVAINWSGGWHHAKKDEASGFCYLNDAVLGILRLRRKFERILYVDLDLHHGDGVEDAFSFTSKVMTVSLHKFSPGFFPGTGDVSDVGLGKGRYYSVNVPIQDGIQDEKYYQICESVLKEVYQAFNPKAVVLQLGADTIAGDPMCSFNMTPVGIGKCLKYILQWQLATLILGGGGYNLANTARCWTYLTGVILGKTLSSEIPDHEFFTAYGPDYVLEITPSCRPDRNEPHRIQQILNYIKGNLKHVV

[17] = target: T2, Protein deacetylase HDAC6 (Homo sapiens, UniProt Q9UBN7); experiment: Inhibition of human recombinant HDAC6 incubated for 15 mins by fluorescence based microplate analysis
T2 sequence (Q9UBN7 whole entry): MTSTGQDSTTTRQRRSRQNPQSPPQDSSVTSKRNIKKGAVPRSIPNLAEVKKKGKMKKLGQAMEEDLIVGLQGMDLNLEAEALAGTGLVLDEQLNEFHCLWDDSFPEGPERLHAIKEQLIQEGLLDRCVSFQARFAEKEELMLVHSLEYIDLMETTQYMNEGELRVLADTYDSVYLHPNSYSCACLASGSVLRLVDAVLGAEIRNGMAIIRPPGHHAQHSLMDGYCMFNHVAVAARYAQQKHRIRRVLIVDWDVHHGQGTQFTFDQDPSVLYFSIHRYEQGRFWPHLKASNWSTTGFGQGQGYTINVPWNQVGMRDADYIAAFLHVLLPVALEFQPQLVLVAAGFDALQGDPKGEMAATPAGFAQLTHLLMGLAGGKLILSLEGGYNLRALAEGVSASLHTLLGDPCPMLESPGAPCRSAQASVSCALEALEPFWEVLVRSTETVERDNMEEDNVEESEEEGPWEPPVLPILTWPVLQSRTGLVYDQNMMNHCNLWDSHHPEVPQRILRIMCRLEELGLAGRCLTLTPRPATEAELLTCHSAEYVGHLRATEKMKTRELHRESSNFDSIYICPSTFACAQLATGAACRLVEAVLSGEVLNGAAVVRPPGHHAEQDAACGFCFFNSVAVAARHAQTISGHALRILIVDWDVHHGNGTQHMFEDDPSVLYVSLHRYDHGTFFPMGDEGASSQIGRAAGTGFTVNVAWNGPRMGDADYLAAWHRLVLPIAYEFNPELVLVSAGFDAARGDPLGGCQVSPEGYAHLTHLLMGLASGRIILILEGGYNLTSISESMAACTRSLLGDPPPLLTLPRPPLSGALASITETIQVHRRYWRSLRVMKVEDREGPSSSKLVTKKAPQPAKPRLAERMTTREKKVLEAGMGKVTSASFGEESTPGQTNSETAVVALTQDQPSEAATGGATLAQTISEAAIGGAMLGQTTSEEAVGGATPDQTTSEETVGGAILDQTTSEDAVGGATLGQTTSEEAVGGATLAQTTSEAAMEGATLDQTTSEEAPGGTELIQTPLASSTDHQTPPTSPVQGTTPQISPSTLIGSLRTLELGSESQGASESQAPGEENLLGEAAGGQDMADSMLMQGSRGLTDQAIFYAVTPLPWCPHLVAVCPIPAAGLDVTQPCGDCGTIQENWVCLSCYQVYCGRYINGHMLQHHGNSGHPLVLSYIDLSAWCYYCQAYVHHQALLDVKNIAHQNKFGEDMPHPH

Histone deacetylase 8 [18] = target: T1, Histone deacetylase 8; experiment: Inhibition of HDAC8 (unknown origin)
[19] = target: T2, Protein deacetylase HDAC6; experiment: Inhibition of HDAC6 (unknown origin)

Structure (SMILES): CCCNNC(=O)c1cnc(NC(=O)c2ccc3[nH]ccc3c2)cn1
selectivity ratio [1]: > 40 | selectivity ratio [2]: > 40 | pIC50 (MDA-MB-453): 5.66 | selectivity ratio [3]: > 40 | selectivity ratio [4]: > 40 | pIC50 (MCF7): 5.69 | IC50 at 72 h [5]: 180 µM | IC50 at 72 h [6]: 138 µM | selectivity ratio [7]: > 40 | selectivity ratio [8]: > 40 | inhibition (Histone deacetylase 3): > 70% | pIC50 (4T1): 6.15 | selectivity ratio [9]: > 40 | IC50 at 72 h [10]: 125 µM | selectivity ratio [11]: > 40 | selectivity ratio [12]: > 40 | selectivity ratio [13]: > 40 | inhibition (Histone deacetylase 2): < 17% | selectivity ratio [14]: > 40 | pIC50 (MDA-MB-231): 6.04 | inhibition (Histone deacetylase 1): < 17% | selectivity ratio [15]: > 40

Structure (SMILES): CCCNNC(=O)c1cnc(NC(=O)c2ccc3ncccc3c2)cn1
selectivity ratio [1]: > 40 | selectivity ratio [2]: > 40 | pIC50 (MDA-MB-453): 5.74 | selectivity ratio [3]: > 40 | selectivity ratio [4]: > 40 | pIC50 (MCF7): 6.00 | IC50 at 72 h [5]: 131 µM | IC50 at 72 h [6]: 126 µM | selectivity ratio [7]: > 40 | selectivity ratio [8]: > 40 | inhibition (Histone deacetylase 3): > 70% | pIC50 (4T1): 6.23 | selectivity ratio [9]: > 40 | IC50 at 72 h [10]: 140 µM | selectivity ratio [11]: > 40 | selectivity ratio [12]: > 40 | selectivity ratio [13]: > 40 | inhibition (Histone deacetylase 2): < 17% | selectivity ratio [14]: > 40 | pIC50 (MDA-MB-231): 6.06 | inhibition (Histone deacetylase 1): < 17% | selectivity ratio [15]: > 40

Structure (SMILES): Nc1ccccc1NC(=O)c1cnc(NCc2ccccc2)cn1
pIC50 (Histone deacetylase 8 [16]): 4.81 | pIC50 [17]: 4.43

Structure (SMILES): CCCCNNC(=O)c1cnc(NCc2ccccc2)cn1
selectivity ratio [1]: > 40 | selectivity ratio [2]: > 40 | pIC50 (MDA-MB-453): 5.48 | selectivity ratio [3]: > 40 | selectivity ratio [4]: > 40 | pIC50 (MCF7): 5.67 | IC50 at 72 h [5]: 129 µM | IC50 at 72 h [6]: 133 µM | selectivity ratio [7]: > 40 | selectivity ratio [8]: > 40 | inhibition (Histone deacetylase 3): > 70% | pIC50 (4T1): 5.80 | selectivity ratio [9]: > 40 | IC50 at 72 h [10]: 113 µM | selectivity ratio [11]: > 40 | selectivity ratio [12]: > 40 | selectivity ratio [13]: > 40 | selectivity ratio [14]: > 40 | pIC50 (MDA-MB-231): 3.88 | selectivity ratio [15]: > 40

Structure (SMILES): Nc1ccccc1NC(=O)c1cnccn1
pIC50 (Histone deacetylase 8 [18]): 4.55 | pIC50 [19]: 4.47

Continued, in another order:

inhibition (Histone deacetylase 3): > 70% | inhibition (Histone deacetylase 2): < 17% | inhibition (Histone deacetylase 1): < 17%
Structure (SMILES): CCCNNC(=O)c1cnc(NCc2ccccc2)cn1
selectivity ratio [1]: > 40 | selectivity ratio [2]: > 40 | pIC50 (MDA-MB-453): 5.56 | selectivity ratio [3]: > 40 | selectivity ratio [4]: > 40 | pIC50 (MCF7): 5.95 | IC50 at 72 h [5]: 140 µM | IC50 at 72 h [6]: 110 µM | selectivity ratio [7]: > 40 | selectivity ratio [8]: > 40 | pIC50 (4T1): 5.94 | selectivity ratio [9]: > 40 | IC50 at 72 h [10]: 114 µM | selectivity ratio [11]: > 40 | selectivity ratio [12]: > 40 | selectivity ratio [13]: > 40 | selectivity ratio [14]: > 40 | pIC50 (MDA-MB-231): 5.91 | selectivity ratio [15]: > 40

inhibition (Histone deacetylase 3): > 70%
Structure (SMILES): CCCCNNC(=O)c1cnc(NCc2ccc(OC)cc2)cn1
selectivity ratio [1]: > 40 | selectivity ratio [2]: > 40 | pIC50 (MDA-MB-453): 5.57 | selectivity ratio [3]: > 40 | selectivity ratio [4]: > 40 | pIC50 (MCF7): 5.59 | pIC50 ([5]; hcec): 2.86 | IC50 at 72 h [6]: 107 µM | selectivity ratio [7]: > 40 | selectivity ratio [8]: > 40 | pIC50 (4T1): 6.03 | selectivity ratio [9]: > 40 | IC50 at 72 h [10]: 109 µM | selectivity ratio [11]: > 40 | selectivity ratio [12]: > 40 | selectivity ratio [13]: > 40 | selectivity ratio [14]: > 40 | pIC50 (MDA-MB-231): 6.01 | selectivity ratio [15]: > 40
